Source: patent publication US20230085307A1, “PYRIDAZINONE COMPOUND AND HERBICIDE” (NISSAN CHEMICAL CORPORATION, priority 2019, published 2023)

Experiments:
Italian ryegrass [1] = test: Test Example 4: herbicidal effect by soil treatment (Table 19, symbol K); assay type: in vivo, Italian ryegrass (Lolium multiflorum); conditions: amount of applied herbicide 320 g/ha
In short: (§1)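 Herbicidal effect was rated 3 weeks after treatment, using the scoring criteria of an earlier test. The compound, formulated as an emulsion and diluted in water to a set herbicide amount, had been sprayed uniformly on soil over freshly sown seeds. Growth took place in a greenhouse at 25° C. to 30° C.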

blackgrass [2] = test: Test Example 4: herbicidal effect by soil treatment (Table 19, symbol J); assay type: in vivo, blackgrass (Alopecurus myosuroides); conditions: amount of applied herbicide 320 g/ha
In short: as §1

blackgrass [3] = test: Test Example 5: herbicidal effect by foliage application, plastic box (Table 20, symbol J); assay type: in vivo, blackgrass (Alopecurus myosuroides); conditions: foliage application, 320 g/ha, three weeks after application
In short: (§2)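 Foliar spray test: emulsion formulation diluted in water to a set application rate, sprayed onto 14-day-old plants raised in diluvial soil at 25° C to 30° C under glass. Both herbicidal effect and crop effect rated visually three weeks later.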

barnyard grass [4] = test: Test Example 4: herbicidal effect by soil treatment (Table 19, symbol H); assay type: in vivo, barnyard grass (Echinochloa crus-galli); conditions: amount of applied herbicide 320 g/ha
In short: as §1

green foxtail = test: Test Example 4: herbicidal effect by soil treatment (Table 19, symbol G); assay type: in vivo, green foxtail (Setaria viridis); conditions: amount of applied herbicide 320 g/ha
In short: as §1

wild oat [5] = test: Test Example 4: herbicidal effect by soil treatment (Table 19, symbol I); assay type: in vivo, wild oat (Avena fatua); conditions: amount of applied herbicide 320 g/ha
In short: as §1

barnyard grass [6] = test: Test Example 3: herbicidal effect by foliage application, Wagner pot (Table 18, symbol H); assay type: in vivo, barnyard grass (Echinochloa crus-galli)
In short: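 Plants were sown in alluvial soil held under 0.1–0.5 cm standing water and grown 14 days in a greenhouse at 25–30 °C. An emulsifiable formulation, water-diluted to the set dose, was then sprayed onto the foliage, and effects were scored three weeks later using previously defined criteria.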

Japanese bulrush [7] = test: Test Example 1: herbicidal activity, application before weed generation under submerged conditions (Table 16, symbol B); assay type: in vivo, Japanese bulrush (Schoenoplectus juncoides); conditions: amount of applied herbicide 320 g/ha
In short: (§3)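 Emulsion formulation, water-diluted to set dose, was put onto the flooded surface (4 cm depth, alluvial soil) the same day weeds were sown and 2.5-leaf rice transplanted. After 3 weeks at 25-30 °C under glass, each species was rated 0 (≤5% kill) to 5 (≥90% kill).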

wild oat [8] = test: Test Example 5: herbicidal effect by foliage application, plastic box (Table 20, symbol I); assay type: in vivo, wild oat (Avena fatua); conditions: foliage application, 320 g/ha, three weeks after application
In short: as §2

late watergrass [9] = test: Test Example 2: herbicidal activity, application during weed generation under submerged conditions (Table 17, symbol A); assay type: in vivo, late watergrass (Echinochloa oryzicola); conditions: AAH 320 g/ha; application during weed generation, submerged conditions
In short: (§4)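 Herbicide emulsion, diluted with water to the chosen amount, is applied onto 4 cm floodwater over alluvial soil where the weeds were co-sown and raised at 25–30° C. Application timing: 1–2 leaves. Assessment: three weeks afterwards.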

chickweed = test: Test Example 4: herbicidal effect by soil treatment (Table 19, symbol P); assay type: in vivo, common chickweed (Stellaria media); conditions: amount of applied herbicide 320 g/ha
In short: as §1

Italian ryegrass [10] = test: Test Example 5: herbicidal effect by foliage application, plastic box (Table 20, symbol K); assay type: in vivo, Italian ryegrass (Lolium multiflorum); conditions: foliage application, 320 g/ha, three weeks after application
In short: as §2

redroot pigweed = test: Test Example 5: herbicidal effect by foliage application, plastic box (Table 20, symbol N); assay type: in vivo, redroot pigweed (Amaranthus retroflexus); conditions: foliage application, 320 g/ha, three weeks after application
In short: as §2

late watergrass [11] = test: Test Example 1: herbicidal activity, application before weed generation under submerged conditions (Table 16, symbol A); assay type: in vivo, late watergrass (Echinochloa oryzicola); conditions: amount of applied herbicide 320 g/ha
In short: as §3

persian speedwell = test: Test Example 4: herbicidal effect by soil treatment (Table 19, symbol R); assay type: in vivo, Persian speedwell (Veronica persica); conditions: amount of applied herbicide 320 g/ha
In short: as §1

Japanese bulrush [12] = test: Test Example 2: herbicidal activity, application during weed generation under submerged conditions (Table 17, symbol B); assay type: in vivo, Japanese bulrush (Schoenoplectus juncoides); conditions: AAH 320 g/ha; application during weed generation, submerged conditions
In short: as §4

velvetleaf = test: Test Example 5: herbicidal effect by foliage application, plastic box (Table 20, symbol M); assay type: in vivo, velvetleaf (Abutilon theophrasti); conditions: foliage application, 320 g/ha, three weeks after application
In short: as §2

CCCC(=O)Oc1c(C)nn(C)c(=O)c1-c1c(-c2ccc(OC)cc2)sc2cc(OCC)ccc12 [3-092]
K: Italian ryegrass, herbicidal effect grade (Italian ryegrass [1]): 0 (Herbicidal rate of 5% or less (almost no effect)) | J: blackgrass, herbicidal effect grade (blackgrass [2]): 0 (Herbicidal rate of 5% or less (almost no effect)) | J: blackgrass, herbicidal effect grade (blackgrass [3]): 0 (Herbicidal rate of 5% or less (almost no effect)) | H: barnyard grass, herbicidal effect grade (barnyard grass [4]): 0 (Herbicidal rate of 5% or less (almost no effect)) | G: green foxtail, herbicidal effect grade (green foxtail): 0 (Herbicidal rate of 5% or less (almost no effect)) | I: wild oat, herbicidal effect grade (wild oat [5]): 0 (Herbicidal rate of 5% or less (almost no effect)) | herbicidal effect on barnyard grass (H) (barnyard grass [6]; 320 g/ha): 0 (Herbicidal rate of 5% or less (almost no effect)) | Herbicidal effect, B: Japanese bulrush (Japanese bulrush [7]): 3 (Herbicidal rate of 40% or more and less than 70%) | I: wild oat, herbicidal effect grade (wild oat [8]): 0 (Herbicidal rate of 5% or less (almost no effect)) | herbicidal effect rating, A: late watergrass (late watergrass [9]): 0 (Herbicidal rate of 5% or less (almost no effect)) | P: chickweed, herbicidal effect grade (chickweed): 5 (Herbicidal rate of 90% or more (almost completely withered)) | K: Italian ryegrass, herbicidal effect grade (Italian ryegrass [10]): 0 (Herbicidal rate of 5% or less (almost no effect)) | N: redroot pigweed, herbicidal effect grade (redroot pigweed): 5 (Herbicidal rate of 90% or more (almost completely withered)) | Herbicidal effect, A: late watergrass (late watergrass [11]): 0 (Herbicidal rate of 5% or less (almost no effect)) | R: persian speedwell, herbicidal effect grade (persian speedwell): 5 (Herbicidal rate of 90% or more (almost completely withered)) | herbicidal effect rating, B: Japanese bulrush (Japanese bulrush [12]): 1 (Herbicidal rate of 5% or more and less than 20%) | M: velvetleaf, herbicidal effect grade (velvetleaf): 5 (Herbicidal rate of 90% or more (almost completely withered))

CCCC(=O)Oc1c(C)nn(C)c(=O)c1-c1c(-c2ccc(F)cc2OCC)sc2cc(F)ccc12 [3-012]
herbicidal effect, K: Italian ryegrass (Italian ryegrass [1]): 3 (Herbicidal rate of 40% or more and less than 70%) | herbicidal effect, J: blackgrass (blackgrass [2]): 4 (Herbicidal rate of 70% or more and less than 90%) | J: blackgrass, herbicidal effect grade (blackgrass [3]): 5 (Herbicidal rate of 90% or more (almost completely withered)) | herbicidal effect, H: barnyard grass (barnyard grass [4]): 3 (Herbicidal rate of 40% or more and less than 70%) | herbicidal effect, G: green foxtail (green foxtail): 3 (Herbicidal rate of 40% or more and less than 70%) | herbicidal effect, I: wild oat (wild oat [5]): 3 (Herbicidal rate of 40% or more and less than 70%) | herbicidal effect on H: barnyard grass (barnyard grass [6]; amount of applied herbicide 320 g/ha): 5 (Herbicidal rate of 90% or more (almost completely withered)) | Herbicidal effect, B: Japanese bulrush (Japanese bulrush [7]): 5 (Herbicidal rate of 90% or more (almost completely withered)) | I: wild oat, herbicidal effect grade (wild oat [8]): 5 (Herbicidal rate of 90% or more (almost completely withered)) | herbicidal effect rating, A: late watergrass (late watergrass [9]): 4 (Herbicidal rate of 70% or more and less than 90%) | herbicidal effect, P: chickweed (chickweed): 4 (Herbicidal rate of 70% or more and less than 90%) | K: Italian ryegrass, herbicidal effect grade (Italian ryegrass [10]): 4 (Herbicidal rate of 70% or more and less than 90%) | N: redroot pigweed, herbicidal effect grade (redroot pigweed): 5 (Herbicidal rate of 90% or more (almost completely withered)) | Herbicidal effect, A: late watergrass (late watergrass [11]): 5 (Herbicidal rate of 90% or more (almost completely withered)) | herbicidal effect, R: persian speedwell (persian speedwell): 5 (Herbicidal rate of 90% or more (almost completely withered)) | herbicidal effect rating, B: Japanese bulrush (Japanese bulrush [12]): 5 (Herbicidal rate of 90% or more (almost completely withered)) | M: velvetleaf, herbicidal effect grade (velvetleaf): 5 (Herbicidal rate of 90% or more (almost completely withered))
